Assays:
hD2R = hD2R (Homo sapiens (Human), UniProt P14416); assay: [3H]N-methylspiperone competition binding, D2R; conditions: HEK 293 membranes, read-out: Ki (nM) ± SEM D2R
hD4R = hD4R (Homo sapiens (Human), UniProt P21917); assay: [3H]N-methylspiperone competition binding, D4R; conditions: for Ki: HEK 293 membranes, [3H]N-methylspiperone, read-out: Ki (nM) ± SEM D4R; for Selectivity D2R/D4R / Selectivity D3R/D4R: ratio of Ki values
hD3R = hD3R (Homo sapiens (Human), UniProt P35462); conditions: read-out: Ki (nM) ± SEM D3R; HEK 293 membranes, [3H]N-methylspiperone
hD3R, sequence (P35462 whole entry): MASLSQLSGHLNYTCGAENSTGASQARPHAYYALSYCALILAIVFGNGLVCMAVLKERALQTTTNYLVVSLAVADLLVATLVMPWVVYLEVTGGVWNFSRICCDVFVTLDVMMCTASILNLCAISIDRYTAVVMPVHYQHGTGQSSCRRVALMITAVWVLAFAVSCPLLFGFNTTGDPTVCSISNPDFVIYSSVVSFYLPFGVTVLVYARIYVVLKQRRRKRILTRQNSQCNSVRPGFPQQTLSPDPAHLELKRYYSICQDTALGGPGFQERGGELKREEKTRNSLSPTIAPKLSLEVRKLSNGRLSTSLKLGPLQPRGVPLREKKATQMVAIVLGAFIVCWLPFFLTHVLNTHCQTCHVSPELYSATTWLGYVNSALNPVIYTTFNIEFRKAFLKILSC

cocaine intake = conditions: monkeys; cited from earlier work

hD4R, sequence (P21917 whole entry): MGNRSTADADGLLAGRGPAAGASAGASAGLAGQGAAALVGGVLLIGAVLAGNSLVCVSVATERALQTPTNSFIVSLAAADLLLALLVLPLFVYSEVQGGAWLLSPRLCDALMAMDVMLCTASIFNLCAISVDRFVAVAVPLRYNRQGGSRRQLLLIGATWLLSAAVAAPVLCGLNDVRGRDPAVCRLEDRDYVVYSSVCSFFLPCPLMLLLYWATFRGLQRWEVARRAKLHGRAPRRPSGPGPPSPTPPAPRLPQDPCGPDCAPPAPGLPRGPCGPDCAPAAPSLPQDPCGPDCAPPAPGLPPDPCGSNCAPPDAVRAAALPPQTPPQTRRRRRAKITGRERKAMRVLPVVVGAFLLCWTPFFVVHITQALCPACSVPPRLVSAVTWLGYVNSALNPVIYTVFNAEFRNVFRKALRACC
hD2R, sequence (P14416 whole entry): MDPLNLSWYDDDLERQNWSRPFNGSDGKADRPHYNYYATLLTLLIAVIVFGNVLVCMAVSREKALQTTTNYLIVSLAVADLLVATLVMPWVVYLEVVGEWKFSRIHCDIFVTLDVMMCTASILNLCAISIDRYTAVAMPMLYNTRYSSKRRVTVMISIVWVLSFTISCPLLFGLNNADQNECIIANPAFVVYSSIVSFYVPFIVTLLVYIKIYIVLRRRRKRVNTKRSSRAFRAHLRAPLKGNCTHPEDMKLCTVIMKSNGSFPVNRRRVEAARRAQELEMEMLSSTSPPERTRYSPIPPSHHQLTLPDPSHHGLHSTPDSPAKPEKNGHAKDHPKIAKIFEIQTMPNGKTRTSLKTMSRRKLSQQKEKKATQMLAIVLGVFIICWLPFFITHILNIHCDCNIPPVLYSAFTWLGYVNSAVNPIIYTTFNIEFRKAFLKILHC

Compound | Ki (hD2R) | D4R binding selectivity vs. D2R and D3R (other D2-like receptors) (hD4R) | Ki (hD4R) | Selectivity D2R/D4R (hD4R) | Selectivity D3R/D4R (hD4R) | Ki (hD3R) | cocaine intake (cocaine intake)
Cc1cccc2nc(CCCN3CCC(c4ccccn4)CC3)sc12 [Compound 15] | 18000 ± 15200 nM | > 15907 fold | 1.13 ± 0.27 nM | 15907 | 32756 | 37100 ± 30300 nM | 
CCc1ccnc(C2CCN(CCCc3nc4ccccc4s3)CC2)c1 [Compound 19] | 12300 ± 7670 nM |  | 5.89 nM | 2082 | 2838 | 16700 ± 13300 nM | 
c1ccc(-c2ncc(CN3CCN(c4ncccn4)CC3)[nH]2)cc1 [NGD-94-1] |  |  |  |  |  |  | reduced cocaine intake
Ro10-5824 |  |  |  |  |  |  | reduced cocaine intake

— patent publication US12122771B2, “Compounds useful for treatment of substance use disorder” (HIGH POINT UNIVERSITY, priority 2021, dated 2024)
